The values that follow come from patent publication US7943658B2, “Indole indane amide compounds useful as CB2 agonists and method” (Bristol-Myers Squibb Company, priority 2007, dated 2011).

For one test, the target named is T1, hCB2 receptors (Homo sapiens, UniProt P34972).
T1 construct: expressed in transfected cells; host or cells: CHO cells
Put plainly: Filtration binding assay, [3H]CP55,940 displacement. To be noted: membrane proteins or CHO cells expressing hCB2, read-out: CB2 binding Ki. How it is done: Compound dilutions were carried out in duplicate in binding buffer [25 mM HEPES pH 7.4, 150 mM NaCl, 1 mM EDTA, 2 mM MgCl2, 0.25% BSA, […]]. Mix binding buffer, membrane proteins (or CHO cells expressing hCB2 receptors) together. Dispense 75 ul of mixture into each well in 96 well plates. Add 1 ul of drug in DMSO, or DMSO alone into each well. 1:500-1000 dilute the hot ligand [^3H]CP55,940 (specific activity=120 Ci/mmol; PerkinElmer Life and Analytical Sciences) in binding buffer and add 25 ul per well with either 5 ug/well cell membrane or 50000 cells/well. After incubation at room temperature for 2 hours, transfer the binding reaction onto filtration plates (UniFilter CF/C filter plate presoaked with 0.3% polyethylenimine; PerkinElmer Life and Analytical Sciences) using Packard Cell Harvester. Wash the filter with quarter strength of PBS (1:4 dilution of regular PBS with H2O) 8 times. Air dry the filter, add 40 ul MicroScint20 into each well, seal the top, and count with the TopCount. Bound radioactivity was analyzed for Ki using nonlinear regression analysis (Excel Xfit) with the Kd values for [3H]CP55,940 determined from saturation experiments.

Test [1] addresses T2, CB2/CHO cell membrane proteins (Homo sapiens, UniProt P34972).
T2 construct: expressed in transfected cells; host or cells: CHO cells (membranes)
Briefly: GTPgS binding assay. The note with it: [35S]GTPγS, CB2/CHO cell membranes. In kind it is biochemical. How it is done: Add 50 ul of reaction mixture containing 2 ug of CB2/CHO cell membrane proteins, 10 ul WGA-PVT beads (20 mg/ml), and 5 uM GDP in assay buffer (20 mM HEPES pH 7.4, 100 mM NaCl, 1 mM EDTA, 10 mM MgCl2, 10 ug/ml saponin, 0.25% BSA, and 1 uM leupeptin) into each well in 96 well white plate (Corning 3693, VWR#29444-312). Add 1 ul of testing compound into test, 1 ul of DMSO into basal, 1 ul of 200 uM CP55,940 into 100% activation, 1 ul of 1 mM cold GTPγS into NSB wells, respectively. Dilute [^35S]GTPγS (1:12.5 pre-diluted 1 uCi/ul stock, NEG030H, NEN) 1:1350 in binding buffer and add 25 ul into each well (200 pM final). Incubate at RT for 90 min and spin the plate at 1000 rpm for 5 min before counting with TopCount for 1-2 min.

Each structure is given as a SMILES string.

T1 sequence (P34972 whole entry): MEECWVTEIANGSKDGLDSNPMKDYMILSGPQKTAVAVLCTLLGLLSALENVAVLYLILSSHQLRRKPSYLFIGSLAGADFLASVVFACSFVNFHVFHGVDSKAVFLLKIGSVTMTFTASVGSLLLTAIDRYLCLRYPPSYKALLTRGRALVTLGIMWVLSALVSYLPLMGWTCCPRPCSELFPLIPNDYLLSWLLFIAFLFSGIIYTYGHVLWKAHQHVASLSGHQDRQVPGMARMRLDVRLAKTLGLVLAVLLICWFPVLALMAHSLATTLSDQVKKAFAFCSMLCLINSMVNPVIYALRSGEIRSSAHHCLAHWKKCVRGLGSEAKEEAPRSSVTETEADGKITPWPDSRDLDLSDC
T2 sequence (P34972 whole entry): as above

As to `COC(=O)c1ccc2c(c1)[C@H](NC(=O)c1cc3cc(Cl)ccc3[nH]1)C(C)(C)C2` [Example 11, (R)-Methyl-3-(5-chloro-1H-indole-2-carboxamido)-2,2-dimethyl-2,3-dihydro-1H-indene-5-carboxylate], the Ki at hCB2 receptors amounted to 35 ± 12 nM.

`CC1(C)Cc2ccc(C#N)cc2[C@@H]1NC(=O)c1cc2cc(N)ccc2[nH]1` [Example 9, (R)-5-Amino-N-(6-cyano-2,2-dimethyl-2,3-dihydro-1H-inden-1-yl)-1H-indole-2-carboxamide]: the Ki on hCB2 receptors is 39 ± 14 nM.

For `CC1(C)Cc2ccc(C#N)cc2[C@@H]1NC(=O)c1cc2cc(Cl)ccc2[nH]1` [Example 2, (R)N-(6-Cyano-2,2-dimethyl-2,3-dihydro-1H-inden-1-yl)-5-chloro-1H-indole-2-carboxamide], the EC50 in test [1] was found to be 2.2 ± 0.48 nM. The Ki at hCB2 receptors came out at 0.71 ± 0.18 nM.

Compound `Cn1c(C(=O)N[C@H]2c3cc(C#N)ccc3CC2(C)C)cc2cc(Cl)ccc21` [Example 3, (R)-5-Chloro-N-(6-cyano-2,2-dimethyl-2,3-dihydro-1H-inden-1-yl)-1-methyl-1H-indole-2-carboxamide] yielded an EC50 in test [1] of 4.5 ± 1.2 nM. The Ki on hCB2 receptors came to 7.6 ± 1.7 nM.

`CC1(C)Cc2ccc(C#N)cc2[C@@H]1NC(=O)c1cc2cc(Cl)ccc2n1CCN1CCOCC1` [Example 5, (R)-5-Chloro-N-(6-cyano-2,2-dimethyl-2,3-dihydro-1H-inden-1-yl)-1-(2-morpholinoethyl)-1H-indole-2-carboxamide]: a half-maximal response in test [1] (EC50) required 7.8 ± 2.5 nM. The Ki at hCB2 receptors was 39 ± 14 nM.

In the case of `CC1(C)Cc2ccc(C#N)cc2[C@@H]1NC(=O)c1cc2ccccc2[nH]1` [Example 6, (R)—N-(6-Cyano-2,2-dimethyl-2,3-dihydro-1H-inden-1-yl)-1H-indole-2-carboxamide], on hCB2 receptors, the Ki came out at 2.4 ± 1.1 nM.

For the compound `CC1(C)Cc2ccc(C#N)cc2[C@@H]1NC(=O)c1cc2cc(F)ccc2[nH]1` [Example 7, (R)—N-(6-Cyano-2,2-dimethyl-2,3-dihydro-1H-inden-1-yl)-5-fluoro-1H-indole-2-carboxamide], the Ki at hCB2 receptors came to 0.24 ± 0.12 nM.

`CC1(C)Cc2ccc(C#N)cc2[C@H]1NC(=O)c1cc2cc(O)ccc2[nH]1` [Example 1A, (S)—N-(6-Cyano-2,2-dimethyl-2,3-dihydro-1H-inden-1-yl)-5-hydroxy-1H-indole-2-carboxamide]: the Ki on hCB2 receptors was determined as 1590 nM.

As for `CC1(C)Cc2ccc(C#N)cc2[C@@H]1NC(=O)c1cc2cc([N+](=O)[O-])ccc2[nH]1` [Example 8, (R)—N-(6-Cyano-2,2-dimethyl-2,3-dihydro-1H-inden-1-yl)-5-nitro-1H-indole-2-carboxamide], the Ki at hCB2 receptors amounted to 4.2 ± 1.6 nM.

In turn, `CC1(C)Cc2ccc(C#N)cc2[C@@H]1NC(=O)c1cc2cc(O)ccc2[nH]1` [Example 1, (R)—N-(6-Cyano-2,2-dimethyl-2,3-dihydro-1H-inden-1-yl)-5-hydroxy-1H-indole-2-carboxamide] came in with an EC50 in test [1] of 2.4 ± 0.55 nM. Besides, the Ki at hCB2 receptors was determined as 3 nM.

On to `COCCNc1ccc2[nH]c(C(=O)N[C@H]3c4cc(C#N)ccc4CC3(C)C)cc2c1` [Example 10, (R)—N-(6-Cyano-2,2-dimethyl-2,3-dihydro-1H-inden-1-yl)-5-(2-methoxyethylamino)-1H-indole-2-carboxamide], for which the Ki on hCB2 receptors amounted to 50 ± 16 nM.

The compound `CN(C)CCn1c(C(=O)N[C@H]2c3cc(C#N)ccc3CC2(C)C)cc2cc(Cl)ccc21` [Example 4, (R)-5-Chloro-N-(6-cyano-2,2-dimethyl-2,3-dihydro-1H-inden-1-yl)-1-(2-(dimethylamino)ethyl)-1H-indole-2-carboxamide] yielded an EC50 in test [1] of 8.1 ± 2.2 nM. Also, the Ki at hCB2 receptors came out at 60 ± 26 nM.
